Target: T1, human EGF-R (Homo sapiens, UniProt P00533)
T1 construct: expressed in transfected cells; host or cells: F/L-HERc cells (murine IL-3-dependent FDC-P1 line transduced with LXSN retroviral vector carrying human EGF-R cDNA; packaging line GP+E86)
Assay: Inhibition of EGF-dependent proliferation of F/L-HERc cells (Cell Titer 96 assay)
Format: cell-based
Details: F/L-HERc cells (murine IL-3-dependent line expressing human EGF-R), stimulated with EGF 20 ng/ml, 48 hours at 37° C.
Source text: A cell line of murine origin dependent on interleukin-3-(IL-3) which was genetically modified to express functional human EGF-R was used here. The proliferation of these cells known as F/L-HERc can therefore be stimulated either by murine IL-3 or by EGF (cf. T. von Rüden et al. in EMBO J. 7, 2749-2756 (1988) and J. H. Pierce et al. in Science 239, 628-631 (1988)).
The starting material used for the F/L-HERc cells was the cell line FDC-P1, the production of which has been described by T. M. Dexter et al. in J. Exp. Med. 152, 1036-1047 (1980). Alternatively, however, other growth-factor-dependent cells may also be used (cf., for example, J. H. Pierce et al. in Science 239, 628-631 (1988), H. Shibuya et al. in Cell 70, 57-67 (1992) and W. S. Alexander et al. in EMBO J. 10, 3683-3691 (1991)). For expressing the human EGF-R cDNA (cf. A. Ullrich et al. in Nature 309, 418-425 (1984)) recombinant retroviruses were used as described by T. von Rüden et al., EMBO J. 7, 2749-2756 (1988), except that the retroviral vector LXSN (cf. A. D. Miller et al. in BioTechniques 7, 980-990 (1989)) was used for the expression of the EGF-R cDNA and the line GP+E86 (cf. D. Markowitz et al. in J. Virol. 62, 1120-1124 (1988)) was used as the packaging cell.
The test was performed as follows:
F/L-HERc cells were cultivated in RPMI/1640 medium (Bio Whittaker), supplemented with 10% fetal calf serum (FCS, Boehringer Mannheim), 2 mM glutamine (Bio Whittaker), standard antibiotics and 20 ng/ml of human EGF (Promega), at 37° C. and 5% CO2. In order to investigate the inhibitory activity of the compounds according to the invention, 1.5×10^4 cells per well were cultivated in triplicate in 96-well dishes in the above medium (200 μl), the cell proliferation being stimulated with either EGF (20 ng/ml) or murine IL-3. […]
In order to determine the inhibitory activity of the compounds according to the invention the relative cell number was measured in O.D. units using the Cell Titer 96™ Aqueous Non-Radioactive Cell Proliferation Assay (Promega). […]

T1 sequence (P00533 25-1210): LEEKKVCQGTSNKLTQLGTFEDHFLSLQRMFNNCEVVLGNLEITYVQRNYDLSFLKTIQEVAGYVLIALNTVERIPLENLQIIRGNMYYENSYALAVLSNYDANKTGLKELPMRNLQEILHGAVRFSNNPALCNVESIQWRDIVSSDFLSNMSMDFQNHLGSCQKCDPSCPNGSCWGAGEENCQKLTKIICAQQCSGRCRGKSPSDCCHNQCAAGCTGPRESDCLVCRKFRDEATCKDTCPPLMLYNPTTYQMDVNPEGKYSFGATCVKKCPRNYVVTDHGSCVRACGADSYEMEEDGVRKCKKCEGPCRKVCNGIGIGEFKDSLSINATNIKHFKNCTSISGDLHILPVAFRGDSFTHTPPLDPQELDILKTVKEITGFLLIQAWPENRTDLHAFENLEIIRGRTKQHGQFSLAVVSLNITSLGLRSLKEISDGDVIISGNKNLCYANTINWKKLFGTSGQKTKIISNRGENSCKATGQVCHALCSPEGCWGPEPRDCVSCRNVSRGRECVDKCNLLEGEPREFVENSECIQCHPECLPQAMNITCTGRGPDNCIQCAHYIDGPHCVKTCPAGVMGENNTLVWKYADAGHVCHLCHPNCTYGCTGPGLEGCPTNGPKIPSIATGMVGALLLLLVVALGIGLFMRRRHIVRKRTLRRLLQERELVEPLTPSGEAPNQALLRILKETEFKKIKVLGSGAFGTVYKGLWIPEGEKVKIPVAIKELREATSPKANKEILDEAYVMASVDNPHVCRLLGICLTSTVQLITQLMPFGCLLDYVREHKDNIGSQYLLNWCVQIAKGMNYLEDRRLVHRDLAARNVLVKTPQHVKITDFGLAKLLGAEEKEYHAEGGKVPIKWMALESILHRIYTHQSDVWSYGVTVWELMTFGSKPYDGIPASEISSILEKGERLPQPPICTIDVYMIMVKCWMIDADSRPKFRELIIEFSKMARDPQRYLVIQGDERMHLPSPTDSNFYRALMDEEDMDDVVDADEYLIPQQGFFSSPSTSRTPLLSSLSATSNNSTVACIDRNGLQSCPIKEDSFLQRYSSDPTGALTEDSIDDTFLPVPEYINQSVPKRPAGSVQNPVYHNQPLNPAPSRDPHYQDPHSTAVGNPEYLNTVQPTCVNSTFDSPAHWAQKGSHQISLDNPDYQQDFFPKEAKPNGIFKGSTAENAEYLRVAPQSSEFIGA

Compound	IC50 [nM]
CN(CC=CC(=O)Nc1cc2c(Nc3ccc(F)c(Cl)c3)ncnc2cc1OCC1CC1)CC1OCCO1 [1(2), 4-[(3-chloro-4-fluorophenyl)amino]-6-[(4-{N-[(1,3-dioxolan-2-yl)methyl]-N-methylamino}-1-oxo-2-buten-1-yl)amino]-7-cyclopropylmethoxyquinazoline]	0.02
C[C@@H]1CN(CC=CC(=O)Nc2cc3c(Nc4ccc(F)c(Cl)c4)ncnc3cc2OCC2CC2)CC(=O)O1 [2(1), 4-[(3-chloro-4-fluorophenyl)amino]-6-{[4-((R)-6-methyl-2-oxomorpholin-4-yl)-1-oxo-2-buten-1-yl]amino}-7-cyclopropylmethoxyquinazoline]	9
C[C@H]1CN(CC=CC(=O)Nc2cc3c(Nc4ccc(F)c(Cl)c4)ncnc3cc2OCC2CC2)CC(=O)O1 [Example 2, 4-[(3-chloro-4-fluorophenyl)amino]-6-{[4-((S)-6-methyl-2-oxomorpholin-4-yl)-1-oxo-2-buten-1-yl]amino}-7-cyclopropylmethoxyguinazoline]	15

Tested on: not given
Assay: not given
Details: not given

Compound	melting point [°C]
C[C@H]1CN(CC=CC(=O)Nc2cc3c(Nc4ccc(F)c(Cl)c4)ncnc3cc2OCC2CCOCC2)CC(=O)O1 [Example 2(21), 4-[(3-chloro-4-fluorophenyl)amino]-6-{[4-((S)-6-methyl-2-oxomorpholin-4-yl)-1-oxo-2-buten-1-yl]amino}-7-[(tetrahydropyran-4-yl)methoxy]quinazoline]	196 to 199
C[C@H]1C(=O)OCCN1CC=CC(=O)Nc1cc2c(Nc3ccc(F)c(Cl)c3)ncnc2cc1OCC1CC1 [Example 2(2), 4-[(3-chloro-4-fluorophenyl)amino]-6-{[4-((S)-3-methyl-2-oxomorpholin-4-yl)-1-oxo-2-buten-1-yl]amino}-7-cyclopropylmethoxyquinazoline]	182
CN(CC=CC(=O)Nc1cc2c(Nc3ccc(F)c(Cl)c3)ncnc2cc1OCC1CC1)CC1OCCO1 [1(2), 4-[(3-chloro-4-fluorophenyl)amino]-6-[(4-{N-[(1,3-dioxolan-2-yl)methyl]-N-methylamino}-1-oxo-2-buten-1-yl)amino]-7-cyclopropylmethoxyquinazoline]	121
C[C@@H]1CN(CC=CC(=O)Nc2cc3c(Nc4ccc(F)c(Cl)c4)ncnc3cc2OCC2CCOCC2)CC(=O)O1 [Example 2(19), 4-[(3-chloro-4-fluorophenyl)amino]-6-{[4-((R)-6-methyl-2-oxomorpholin-4-yl)-1-oxo-2-buten-1-yl]amino}-7-[(tetrahydropyran-4-yl)methoxy]quinazoline]	196
C[C@@H]1CN(CC=CC(=O)Nc2cc3c(Nc4ccc(F)c(Cl)c4)ncnc3cc2O[C@@H]2CCOC2)CC(=O)O1 [Example 2(7), 4-[(3-chloro-4-fluorophenyl)amino]-6-{[4-((R)-6-methyl-2-oxomorpholin-4-yl)-1-oxo-2-buten-1-yl]amino}-7-[(R)-(tetrahydrofuran-3-yl)oxy]quinazoline]	230
